The text below walks through data of PubChem BioAssay AID1996.

≈ marks a conversion by molar mass, not a printed value.

As a reminder, the solubility (kinetic) is the concentration staying in solution when a stock, usually in DMSO, is diluted into the medium.

The conditions of this series: buffer; pH 7.4; 200.0 µM.
For the molecule `CCCCc1nnc(SCC(=O)NC2CCCCC2)n1C`, the solubility (kinetic) is above 46.6 µg/mL. Under `O=C(CCCn1cnc([N+](=O)[O-])n1)Nc1cccc(O)c1` stands above 43.7 µg/mL.

In the case of `COc1ccc2[nH]c3c(=O)n(CCCN4CCOCC4)cnc3c2c1`, the solubility (kinetic) was above 51.4 µg/mL. Molecule `Cc1csc(NC(=O)c2cc3ccccc3o2)n1` yielded a solubility (kinetic) of 16 µg/mL (≈ 61.9 µM). In turn, `COc1ccc(-c2nc(N)nc(C(F)(F)F)c2-c2cscn2)c(O)c1` yielded a solubility (kinetic) below 0.2 µg/mL. Then `O=C(OCC(=O)N1CCOCC1)c1ccccc1OCc1ccccc1Cl`, with 54.9 µg/mL (≈ 141 µM).

`Cc1ccc(NC(=O)CN2CCOCC2)cc1Cl` had a kinetic solubility above 40.3 µg/mL.

Turning to `Cc1ccc(NC(=O)N2CCCc3ccccc32)cc1`, the solubility (kinetic) came out at 36.2 µg/mL (≈ 136 µM). As to `Cc1cccc(NC(=O)N2CCc3ccccc3C2)c1C`, the kinetic solubility was 6.5 µg/mL (≈ 23.2 µM).

As for `COc1cccc(C(=O)Nc2ccc(NC(=O)Cc3ccccc3)cc2)c1`, the solubility (kinetic) was below 0.4 µg/mL. For `COc1ccccc1-c1noc(CCCC(=O)N2CCOCC2)n1`, the solubility (kinetic) was above 49.7 µg/mL. Under `Cc1cccc(N2N=C(C(=O)OCC(=O)c3ccccc3)CCC2=O)c1` stands above 52.6 µg/mL.

Consider `O=C(Nc1ccccc1)C1CCCN1/C=C/C(=O)C(F)(F)F` (stereo unspecified), for which the kinetic solubility was above 46.8 µg/mL.

For the molecule `CN1CCN(c2ccc([N+](=O)[O-])c(SCCO)c2)CC1`, the kinetic solubility is above 44.6 µg/mL.

As to `O=C(c1ccc(Cl)cc1Cl)N1CCN(c2ccccn2)CC1`, the solubility (kinetic) is above 50.4 µg/mL.

With `CCN(CC)CCNC(=O)C(Oc1ccccc1)Oc1ccccc1`, the solubility (kinetic) came to 45.8 µg/mL (≈ 134 µM). `CC(=O)Nc1ccc(NC(=S)NC(=O)C2CCCC2)cc1`: the kinetic solubility was above 45.8 µg/mL. Under `CCOC(=O)C1CCCN(Cc2cccc(Oc3ccccc3)c2)C1` (stereo unspecified) stands 3.1 µg/mL (≈ 9.13 µM). The molecule `COc1ccc(CN2CC(C(=O)NCCC(C)C)CC2=O)cc1` (stereo unspecified) had a solubility (kinetic) above 47.8 µg/mL.

The molecule `COc1ccc(C(=O)NCC2CCCO2)cc1OC` (stereo unspecified) showed a solubility (kinetic) of 35.7 µg/mL (≈ 135 µM). Under `Cc1ccc(C(=O)NCc2ccc3c(c2)OCO3)c(C)c1` stands 11.1 µg/mL (≈ 39.2 µM); under `O=c1oc(-c2ccc([N+](=O)[O-])cc2)nc2ccccc12`, 0.3 µg/mL (≈ 1.12 µM); under `Cc1cccc(C)c1NC(=O)CNC(=O)COC(=O)c1ccc(Cl)s1`, 23.9 µg/mL (≈ 62.8 µM).

Take `O=C(c1ccco1)N1CCN(S(=O)(=O)c2ccccc2)CC1`: the solubility (kinetic) is above 48.1 µg/mL. Under `O=C1CCN(C(=O)Cc2ccccc2[N+](=O)[O-])CC1` stands above 39.3 µg/mL. Under `CC(NS(=O)(=O)c1ccc(N)cc1)C1CC2CCC1C2` (stereo unspecified) stands 6.8 µg/mL (≈ 23.1 µM); under `COc1ccc(OC)c(Cc2nnc(CCC(=O)N3CCCCCC3)o2)c1`, above 56 µg/mL.

Regarding `CCn1c(CCNC(=O)c2ccco2)nc2ccccc21`, the kinetic solubility came to 40.5 µg/mL (≈ 143 µM). Then `CCOC(=O)c1ccc2ncc(-c3ccccc3)nc2c1`, with 0.3 µg/mL (≈ 1.08 µM).

Turning to `CCN(CCO)Cc1cc(=O)oc2cc3c(cc12)CCC3`, the kinetic solubility was determined as 42.1 µg/mL (≈ 147 µM). Then `CCCN1CCN(CC(=O)Nc2nnc(CC)s2)CC1`, with above 44.6 µg/mL. Under `Cc1ccccc1NC(=O)CCN1CCCC1.Cl` stands above 40.3 µg/mL; under `N#CC1(NC(=O)Cn2cc(C(F)(F)F)cc(Cl)c2=O)CCCCC1`, 13.8 µg/mL (≈ 38.1 µM). Then `Cc1nc(C(N)=O)c(N)n1CCc1ccccc1`, with 35.7 µg/mL (≈ 146 µM); and `COc1cccc(-c2c(C#N)c(N)nc3c2c(=O)nc2sccn23)c1`, with 23 µg/mL (≈ 65.8 µM). With `Cc1ccc(C(=O)N/C(=C\c2ccco2)C(=O)N2CCOCC2)cc1C`, the solubility (kinetic) is above 53.2 µg/mL. In the case of `COc1ccc(CNC(=O)Cc2c[nH]c3ccccc23)cc1OC`, the kinetic solubility is 48.6 µg/mL (≈ 150 µM). Under `O=c1[nH]c(NCCO)nnc1Cc1ccc(Cl)cc1` stands above 42.1 µg/mL. `O=C(Nc1nccs1)C1CC(=O)N(c2ccc(F)cc2)C1` (stereo unspecified) displayed a solubility (kinetic) of 9.7 µg/mL (≈ 31.8 µM).

The molecule `Nc1cc2nc3ccccc3nc2cc1N` returned a kinetic solubility of 5.1 µg/mL (≈ 24.3 µM). Then `CN(c1ccccc1)c1nc(N)c([N+](=O)[O-])c(N2CCOCC2)n1`, with 47.6 µg/mL (≈ 144 µM); and `Cc1csc2c(N3CCN(C(=O)NC(C)(C)C)CC3)ncnc12`, with above 50 µg/mL; and `O=[N+]([O-])C(/C=C(/Cl)[N+](=O)[O-])=C(N1CCCCC1)N1CCCCC1`, with 29.1 µg/mL (≈ 84.4 µM).

In turn, `COc1ccccc1Oc1ccc2c(c1)C(=O)N(CC1CCCO1)C2=O` (stereo unspecified) came in with a kinetic solubility of 40.3 µg/mL (≈ 114 µM). Under `Cc1ccc(-c2cn(-c3ccccc3)c(=S)[nH]2)cc1C` stands 16.6 µg/mL (≈ 59.2 µM); under `O=S1(=O)CC2SC(=S)N(c3ccccc3)C2C1` (stereo unspecified), 1.3 µg/mL (≈ 4.55 µM). With `COc1ccc(C2OCC3(CO2)SC(=O)NC3=O)cc1OC` (stereo unspecified), the solubility (kinetic) is 44.8 µg/mL (≈ 138 µM). Then `CN(C(=O)Nc1cccc(C(F)(F)F)c1)C1CCCCC1`, with below 0.3 µg/mL. The molecule `COc1ccc(N2CCN(C(=O)NC(=O)c3ccccc3)CC2)cc1` had a solubility (kinetic) of 38.7 µg/mL (≈ 114 µM). `COC(=O)c1sc(NC(=O)c2ccco2)c(C#N)c1C` gave a kinetic solubility of 3.7 µg/mL (≈ 12.7 µM).

As to `CCOC(=O)c1ccccc1NC(=O)CSc1nc2ccccc2c(=O)n1CCCN1CCOCC1`, the solubility (kinetic) worked out at 18.6 µg/mL (≈ 36.4 µM).
